Here are results for seven test systems from the supplement of paper PMC10331698.

Assay in all cases: level (log10 ratio to DMSO vehicle control); higher = higher biomarker level / cell amount than vehicle control
Holding throughout (settings): in DMSO

Compound in test [1]: C=C(C)C(=O)OCCC(F)(F)C(F)(F)C(F)(F)C(F)(F)C(F)(F)C(F)(F)F [6:2 Fluorotelomer methacrylate]
As for the experimental part: (§1)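 BioMAP Diversity Plus panel of 12 human primary cell co-culture systems (3C, 4H, LPS, SAg, BT, BF4T, BE3C, CASM3C, HDF3CGF, KF3CT, MyoF, Mphg). Compounds were added 1 h before stimulation and left for 24 h (MyoF 48 h; BT 72 h for soluble read-outs or 6 d for IgG). Biomarkers were read by ELISA, cytotoxicity by SRB, PBMC viability and proliferation by Alamar Blue. Each well value was divided by the mean of 8 DMSO control wells on the same plate and log10 transformed; duplicate blinded samples were tested at 4 concentrations.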

Compound in test [2]: COC(=O)C(F)(F)C(F)(F)OC(F)(C(F)(F)F)C(F)(F)OC(F)=C(F)F [Methyl perfluoro(3-(1-ethenyloxypropan-2-yloxy)propanoate)]
The protocol: as §1

Compound in test [3]: FC(F)(F)C(F)(F)C(F)(F)CI [Heptafluorobutyl iodide]
The protocol: as §1

Compound in test [4]: FC(F)(F)C(F)(F)CNCC(F)(F)C(F)(F)F [Bis(1H,1H-perfluoropropyl)amine]
As for the experimental part: as §1

Compound in test [5]: NC(=O)C(F)(F)C(F)(F)C(F)(F)C(F)F
As for the experimental part: as §1

Compound in test [6]: NS(=O)(=O)C(F)(F)C(F)(F)C(F)(F)C(F)(F)C(F)(F)C(F)(F)F [Perfluorohexanesulfonamide]
As for the experimental part: as §1

Compound in test [7]: O=C(O)C(F)(F)C(F)(F)C(F)(F)C(F)(F)C(F)(F)C(F)(F)C(F)(F)C(F)(F)C(F)(F)C(F)F [11-H-Perfluoroundecanoic acid]
As for the experimental part:
as §1

± gives the standard deviation of the averaged measurements.

HDF3CGF:TIMP-1: the “level (log10)” value was -0.049 ± 0.028 in test [1] (6700 nM); -0.0115 ± 0.0078 in test [1] (20000 nM); -0.0055 ± 0.0035 in test [1] (60000 nM); 0.0565 ± 0.011 in test [2] (6700 nM); 0.117 ± 0.021 in test [2] (20000 nM); -0.0195 ± 0.037 in test [3] (6700 nM). The “level (log10)” value was -0.019 ± 0.0085 in test [3] (20000 nM); -0.059 ± 0.025 in test [3] (60000 nM); 0 ± 0.0099 in test [4] (6700 nM); -0.0525 ± 0.049 in test [4] (20000 nM); 0.011 ± 0.0071 in test [4] (60000 nM); -0.0005 ± 0.0064 in test [5] (6700 nM). In addition, the “level (log10)” value in test [5] (20000 nM) is -0.0095 ± 0.043; in test [5] (60000 nM), 0.0045 ± 0.039; in test [6] (6700 nM) it was 0.0235 ± 0.0078; in test [6] (20000 nM), 0.048 ± 0.021; in test [6] (60000 nM), 0.05 ± 0.017; in test [7] (6700 nM) it was 0.0005 ± 0.096. In addition, in test [7] (20000 nM), the “level (log10)” value amounted to 0.1 ± 0.072.
For the test system HDF3CGF:TIMP-2, the “level (log10)” value in test [1] (6700 nM) was 0.0065 ± 0.087; in test [1] (20000 nM), 0.018 ± 0.085; in test [1] (60000 nM) it was 0.022 ± 0.082; in test [2] (6700 nM) it was -0.043 ± 0.0028; in test [2] (20000 nM), -0.051 ± 0.028; in test [3] (6700 nM) it was -0.033 ± 0.0042. For the same test system, the “level (log10)” value was -0.044 ± 0.0071 in test [3] (20000 nM); -0.013 ± 0.051 in test [3] (60000 nM); -0.005 ± 0.017 in test [4] (6700 nM); -0.0085 ± 0.033 in test [4] (20000 nM); 0.022 ± 0.0014 in test [4] (60000 nM); 0.015 ± 0.025 in test [5] (6700 nM). For the same test system, the “level (log10)” value in test [5] (20000 nM) is 0.027 ± 0.033; in test [5] (60000 nM), 0.003 ± 0.0028; in test [6] (6700 nM) it was 0.012 ± 0.023; in test [6] (20000 nM) it was 0.0005 ± 0.0021; in test [6] (60000 nM), -0.157 ± 0.0057; in test [7] (6700 nM), -0.0675 ± 0.046. Moreover, the “level (log10)” value in test [7] (20000 nM) was -0.103 ± 0.025.
Consider KF3CT:CCL2/MCP-1, for which the “level (log10)” value in test [1] (6700 nM) was -0.051 ± 0.021; in test [1] (20000 nM), -0.0475 ± 0.005; in test [1] (60000 nM), -0.0235 ± 0.005; in test [2] (6700 nM) it was -0.015 ± 0.0014; in test [2] (20000 nM), 0.01 ± 0.0099; in test [3] (6700 nM) it was -0.0045 ± 0.0021. The “level (log10)” value was -0.018 ± 0.013 in test [3] (20000 nM); 0.0195 ± 0.016 in test [3] (60000 nM); -0.0015 ± 0.05 in test [4] (6700 nM); 0.001 ± 0.048 in test [4] (20000 nM); -0.012 ± 0.042 in test [4] (60000 nM); -0.0055 ± 0.018 in test [5] (6700 nM). The “level (log10)” value in test [5] (20000 nM) is -0.0245 ± 0.0078; in test [5] (60000 nM), 0.0205 ± 0.026; in test [6] (6700 nM), -0.0225 ± 0.021; in test [6] (20000 nM), -0.0525 ± 0.013; in test [6] (60000 nM) it was -0.0145 ± 0.013; in test [7] (6700 nM), -0.043 ± 0.021. Besides, in test [7] (20000 nM), the “level (log10)” value is -0.129 ± 0.0078.
Consider KF3CT:CD54/ICAM-1, for which the “level (log10)” value was 0.006 ± 0.016 in test [1] (6700 nM); -0.014 ± 0.031 in test [1] (20000 nM); -0.0075 ± 0.005 in test [1] (60000 nM); -0.025 in test [2] (6700 nM); -0.008 ± 0.0071 in test [2] (20000 nM); -0.008 ± 0.0071 in test [3] (6700 nM). In addition, the “level (log10)” value in test [3] (20000 nM) is -0.004 ± 0.0028; in test [3] (60000 nM), -0.012 ± 0.0014; in test [4] (6700 nM), -0.011 ± 0.011; in test [4] (20000 nM), -0.008 ± 0.0085; in test [4] (60000 nM), 0.012 ± 0.018; in test [5] (6700 nM), -0.0075 ± 0.011. Besides, the “level (log10)” value in test [5] (20000 nM) was -0.0255 ± 0.005; in test [5] (60000 nM), -0.008 ± 0.0014; in test [6] (6700 nM), -0.0235 ± 0.015; in test [6] (20000 nM) it was -0.019 ± 0.0085; in test [6] (60000 nM), -0.0285 ± 0.025; in test [7] (6700 nM) it was -0.0285 ± 0.039. Also, the “level (log10)” value in test [7] (20000 nM) is 0.0945 ± 0.0092.
As for KF3CT:CXCL9/MIG, the “level (log10)” value was 0.012 ± 0.0042 in test [1] (6700 nM); 0.01 ± 0.0028 in test [1] (20000 nM); 0.01 ± 0.02 in test [1] (60000 nM); -0.013 ± 0.013 in test [2] (6700 nM); -0.0105 ± 0.025 in test [2] (20000 nM); -0.005 ± 0.0014 in test [3] (6700 nM). For the same test system, the “level (log10)” value in test [3] (20000 nM) was -0.008 ± 0.013; in test [3] (60000 nM) it was -0.003 ± 0.0071; in test [4] (6700 nM) it was 0.0085 ± 0.016; in test [4] (20000 nM), -0.001 ± 0.0028; in test [4] (60000 nM), 0.007 ± 0.011; in test [5] (6700 nM), 0.019 ± 0.018. The “level (log10)” value in test [5] (20000 nM) is 0.006 ± 0.02; in test [5] (60000 nM), 0.0145 ± 0.0078; in test [6] (6700 nM), 0.0005 ± 0.0035; in test [6] (20000 nM), -0.0075 ± 0.016; in test [6] (60000 nM), -0.008 ± 0.0057; in test [7] (6700 nM), -0.006 ± 0.0042. Also, in test [7] (20000 nM), the “level (log10)” value is -0.028 ± 0.0028.
KF3CT:CXCL10/IP-10: the “level (log10)” value in test [1] (6700 nM) was 0.019 ± 0.0057; in test [1] (20000 nM), 0.0245 ± 0.013; in test [1] (60000 nM), 0.031 ± 0.0014; in test [2] (6700 nM), -0.0235 ± 0.0021; in test [2] (20000 nM), -0.023 ± 0.0057; in test [3] (6700 nM), -0.009 ± 0.0014. Moreover, the “level (log10)” value in test [3] (20000 nM) is -0.0175 ± 0.0078; in test [3] (60000 nM), -0.013 ± 0.0028; in test [4] (6700 nM) it was -0.0045 ± 0.0078; in test [4] (20000 nM) it was -0.0025 ± 0.0035; in test [4] (60000 nM), 0.0085 ± 0.00071; in test [5] (6700 nM), -0.001 ± 0.0014. Besides, the “level (log10)” value is -0.001 ± 0.013 in test [5] (20000 nM); 0.0025 ± 0.0064 in test [5] (60000 nM); -0.012 ± 0.013 in test [6] (6700 nM); -0.019 ± 0.014 in test [6] (20000 nM); -0.0875 ± 0.0035 in test [6] (60000 nM); -0.036 ± 0.0057 in test [7] (6700 nM). Besides, the “level (log10)” value in test [7] (20000 nM) is -0.211 ± 0.011.
In the case of KF3CT:IL-1alpha, the “level (log10)” value in test [1] (6700 nM) was -0.033 ± 0.025; in test [1] (20000 nM), -0.0395 ± 0.029; in test [1] (60000 nM), -0.0335 ± 0.026; in test [2] (6700 nM), 0.054 ± 0.02; in test [2] (20000 nM) it was 0.071 ± 0.014; in test [3] (6700 nM), -0.0025 ± 0.0078. For the same test system, the “level (log10)” value in test [3] (20000 nM) was -0.04 ± 0.0042; in test [3] (60000 nM), -0.044 ± 0.0057; in test [4] (6700 nM), 0.0045 ± 0.022; in test [4] (20000 nM), -0.013 ± 0.0014; in test [4] (60000 nM) it was 0.0005 ± 0.046; in test [5] (6700 nM), -0.0165 ± 0.011. The “level (log10)” value in test [5] (20000 nM) was -0.0265 ± 0.005; in test [5] (60000 nM), 0.008 ± 0.045; in test [6] (6700 nM) it was 0.026 ± 0.025; in test [6] (20000 nM) it was 0.03 ± 0.028; in test [6] (60000 nM), 0.052 ± 0.02; in test [7] (6700 nM), -0.0255 ± 0.00071. The “level (log10)” value in test [7] (20000 nM) was found to be 0.0105 ± 0.04.
